Test [1] deals with T1, 11β-HSD1 (Homo sapiens, UniProt P28845). Kind of test: Biological Test Example 4: microsomal 11β-HSD1 in the presence of 50% human plasma. Particulars: for Shift: IC50 in Test Example 4 divided by IC50 in Test Example 1.
Another test addresses CYP3A4 (Homo sapiens, UniProt P08684). The test can be described thus: Biological Test Example 6: CYP3A4 inhibition (erythromycin N-demethylation). The format is in vitro ADME.
In test [2] the target is T1, 11β-HSD1. Kind of test: biochemical. Particulars: for inhibition at 0.1 µM: read-out: Average % inhibition at 100 nM.
Setting [3] is: Biological Test Example 1 IC50 (nM).
Setting [4] is: IC50 Range, Biological Test Example 1.

The structures appear in SMILES notation.

T1 sequence (P28845 whole entry): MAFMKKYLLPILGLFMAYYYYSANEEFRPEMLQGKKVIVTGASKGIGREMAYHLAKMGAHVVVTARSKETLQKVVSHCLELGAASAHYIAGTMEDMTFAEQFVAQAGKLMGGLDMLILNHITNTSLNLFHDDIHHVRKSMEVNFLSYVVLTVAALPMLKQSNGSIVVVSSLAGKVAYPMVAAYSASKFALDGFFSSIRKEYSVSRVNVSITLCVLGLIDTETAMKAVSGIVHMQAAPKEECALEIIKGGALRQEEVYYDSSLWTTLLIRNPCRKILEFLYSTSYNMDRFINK
CYP3A4, sequence (P08684 whole entry): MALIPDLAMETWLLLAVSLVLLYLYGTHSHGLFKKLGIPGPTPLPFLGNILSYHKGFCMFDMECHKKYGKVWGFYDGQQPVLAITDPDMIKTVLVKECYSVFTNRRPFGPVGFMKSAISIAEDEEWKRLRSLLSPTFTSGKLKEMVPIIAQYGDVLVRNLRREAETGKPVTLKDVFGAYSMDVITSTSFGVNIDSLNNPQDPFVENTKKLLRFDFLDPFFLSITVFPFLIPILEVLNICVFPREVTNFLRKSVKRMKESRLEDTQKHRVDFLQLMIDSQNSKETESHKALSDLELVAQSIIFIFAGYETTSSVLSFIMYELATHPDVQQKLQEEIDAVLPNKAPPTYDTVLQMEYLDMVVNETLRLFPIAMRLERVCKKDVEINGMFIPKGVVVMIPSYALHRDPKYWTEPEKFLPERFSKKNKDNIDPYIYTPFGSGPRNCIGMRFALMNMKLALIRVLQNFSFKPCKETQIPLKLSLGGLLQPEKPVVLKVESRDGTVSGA

For `Cc1cc(-c2ccc([C@H](C)N3CC[C@](CCC(N)=O)(c4ccc(F)cc4)OC3=O)cc2)ccn1` [EXAMPLE 78, 3-((R)-6-(4-fluorophenyl)-3-((S)-1-(4-(2-methylpyridin-4-yl)phenyl)ethyl)-2-oxo-1,3-oxazinan-6-yl)propanamide], the half-inhibitory concentration (IC50) at 11β-HSD1 [1] is 19.8 nM; on CYP3A4, 7300 nM; against 11β-HSD1 [2] (setting [3]) it was 1.8 nM; at 11β-HSD1 [2] (setting [4]), less than 100 nM. In addition, the inhibition at 0.1 µM on 11β-HSD1 [2] is 95.8%.

`Cc1cc(-c2ccc([C@H](C)N3CC[C@](CCC(N)=O)(c4ccccc4)OC3=O)cc2)ccn1` [EXAMPLE 98, 3-((R)-3-((S)-1-(4-(2-methylpyridin-4-yl)phenyl)ethyl)-2-oxo-6-phenyl-1,3-oxazinan-6-yl)propanamide]: the IC50 at 11β-HSD1 [1] is 6.3 nM; against CYP3A4, 42200 nM; against 11β-HSD1 [2] (setting [3]) it was 1.4 nM; on 11β-HSD1 [2] (setting [4]) it was less than 100 nM. The inhibition at 0.1 µM at 11β-HSD1 [2] is 97.8%.

As for `C[C@@H](c1ccc(-c2ccc(C#N)cn2)cc1)N1CC[C@](CCCO)(c2ccccc2)OC1=O` [EXAMPLE 110, 6-(4-((S)-1-((R)-6-(3-hydroxypropyl)-2-oxo-6-phenyl-1,3-oxazinan-3-yl)ethyl)phenyl)nicotinonitrile], the half-maximal inhibitory concentration (IC50) is 3.7 nM on 11β-HSD1 [1], 0.5 nM against 11β-HSD1 [2] (setting [3]) and less than 100 nM against 11β-HSD1 [2] (setting [4]). In addition, on 11β-HSD1 [1], the Shift is 7.7. Further, the inhibition at 0.1 µM at 11β-HSD1 [2] was determined as 93.9%.

For `Cc1ccc(-c2ccc([C@H](C)N3CC[C@](CCCO)(c4ccc(F)cc4)OC3=O)cc2)nn1` [EXAMPLE 114, (R)-6-(4-fluorophenyl)-6-(3-hydroxypropyl)-3-((S)-1-(4-(6-methylpyridazin-3-yl)phenyl)ethyl)-1,3-oxazinan-2-one], the IC50 at 11β-HSD1 [1] is 3.9 nM; against 11β-HSD1 [2] (setting [3]), 0.9 nM; against 11β-HSD1 [2] (setting [4]) it was less than 100 nM. The Shift on 11β-HSD1 [1] stood at 4.5. The inhibition at 0.1 µM on 11β-HSD1 [2] was determined as 98.9%.

On to `Cc1cc(-c2ccc([C@H](C)N3CC[C@](CCN(C)S(C)(=O)=O)(c4ccccc4)OC3=O)cc2)ccn1` [EXAMPLE 117, N-methyl-N-(2-((S)-3-((S)-1-(4-(2-methylpyridin-4-yl)phenyl)ethyl)-2-oxo-6-phenyl-1,3-oxazinan-6-yl)ethyl)methanesulfonamide], for which the IC50 was 12.1 nM on 11β-HSD1 [1], 1.7 nM at 11β-HSD1 [2] (setting [3]) and less than 100 nM against 11β-HSD1 [2] (setting [4]). For the same molecule, the Shift at 11β-HSD1 [1] worked out at 7.3. For the same molecule, the inhibition at 0.1 µM at 11β-HSD1 [2] amounted to 93.9%.

As for `Cc1cc(-c2ccc([C@H](C)N3CC[C@](CCCN(C)S(C)(=O)=O)(c4ccccc4)OC3=O)cc2)ccn1` [EXAMPLE 119, N-methyl-N-(3-((R)-3-((S)-1-(4-(2-methylpyridin-4-yl)phenyl)ethyl)-2-oxo-6-phenyl-1,3-oxazinan-6-yl)propyl)methanesulfonamide], the half-inhibitory concentration (IC50) on 11β-HSD1 [1] was 29.7 nM; against 11β-HSD1 [2] (setting [3]), 2 nM; against 11β-HSD1 [2] (setting [4]) it was less than 100 nM. In addition, the Shift on 11β-HSD1 [1] is 15.1. The inhibition at 0.1 µM at 11β-HSD1 [2] came out at 90.8%.

Consider `Cc1cc(-c2ccc([C@H](C)N3CC[C@](CCCO)(c4ccc(F)cc4)OC3=O)cc2)cc(C)[n+]1[O-]` [EXAMPLE 122, 4-(4-((S)-1-((R)-6-(4-fluorophenyl)-6-(3-hydroxypropyl)-2-oxo-1,3-oxazinan-3-yl)ethyl)phenyl)-2,6-dimethylpyridine 1-oxide], for which the IC50 is 6.5 nM on 11β-HSD1 [1], 2.5 nM at 11β-HSD1 [2] (setting [3]) and less than 100 nM against 11β-HSD1 [2] (setting [4]). In addition, the Shift at 11β-HSD1 [1] amounted to 2.6. Further, at 11β-HSD1 [2], the inhibition at 0.1 µM was 94.5%.

Consider `Cc1cc(-c2ccc([C@H](C)N3CC[C@](CC(C)(C)O)(c4ccc(F)cc4)OC3=O)cc2)cc[n+]1[O-]` [EXAMPLE 124, 4-(4-((S)-1-((S)-6-(4-fluorophenyl)-6-(2-hydroxy-2-methylpropyl)-2-oxo-1,3-oxazinan-3-yl)ethyl)phenyl)-2-methylpyridine 1-oxide], for which the figures for the IC50 at 11β-HSD1 [1], against 11β-HSD1 [2] (setting [3]) and against 11β-HSD1 [2] (setting [4]) were 14.5 nM, 5.6 nM and less than 100 nM, respectively. The Shift on 11β-HSD1 [1] is on record as 2.6. Also, on 11β-HSD1 [2], the inhibition at 0.1 µM is 88.1%.

`Cc1nccc(-c2ccc([C@H](C)N3CC[C@](CCCO)(c4ccc(F)cc4)OC3=O)cc2)n1` [EXAMPLE 126, (R)-6-(4-fluorophenyl)-6-(3-hydroxypropyl)-3-((S)-1-(4-(2-methylpyrimidin-4-yl)phenyl)ethyl)-1,3-oxazinan-2-one]: the IC50 was 13.3 nM on 11β-HSD1 [1], 1.5 nM against 11β-HSD1 [2] (setting [3]) and less than 100 nM against 11β-HSD1 [2] (setting [4]). In addition, the Shift at 11β-HSD1 [1] is 8.7. For the same molecule, the inhibition at 0.1 µM at 11β-HSD1 [2] is 96.7%.

`Cc1nccc(-c2ccc([C@H](C)N3CC[C@](CC(C)(C)C#N)(c4ccc(F)cc4)OC3=O)cc2)n1` [EXAMPLE 142, 3-((R)-6-(4-fluorophenyl)-3-((S)-1-(4-(2-methylpyrimidin-4-yl)phenyl)ethyl)-2-oxo-1,3-oxazinan-6-yl)-2,2-dimethylpropanenitrile]: the IC50 was 8.1 nM on 11β-HSD1 [1], 2.6 nM against 11β-HSD1 [2] (setting [3]) and less than 100 nM against 11β-HSD1 [2] (setting [4]). Also, the Shift on 11β-HSD1 [1] was determined as 3.1. Further, the inhibition at 0.1 µM on 11β-HSD1 [2] was found to be 96.4%.

As to `C[C@@H](c1ccc(-c2cnc(C#N)cn2)cc1)N1CC[C@](CC(C)(C)O)(c2ccc(F)cc2)OC1=O` [EXAMPLE 153, 5-(4-((S)-1-((S)-6-(4-fluorophenyl)-6-(2-hydroxy-2-methylpropyl)-2-oxo-1,3-oxazinan-3-yl)ethyl)phenyl)pyrazine-2-carbonitrile], the IC50 was 9.2 nM at 11β-HSD1 [1], 1.7 nM at 11β-HSD1 [2] (setting [3]) and less than 100 nM against 11β-HSD1 [2] (setting [4]). The Shift on 11β-HSD1 [1] amounted to 5.4. For the same molecule, on 11β-HSD1 [2], the inhibition at 0.1 µM is 94.7%.

`CC[C@@H](c1ccc(-c2cc(C)[n+]([O-])c(C)c2)cc1)N1CC[C@](CC(C)(C)O)(c2ccccc2)OC1=O` [EXAMPLE 154, 4-(4-((S)-1-((S)-6-(2-hydroxy-2-methylpropyl)-2-oxo-6-phenyl-1,3-oxazinan-3-yl)propyl)phenyl)-2,6-dimethylpyridine 1-oxide]: the IC50 at 11β-HSD1 [1] was 13.2 nM; against 11β-HSD1 [2] (setting [3]), 3.5 nM; at 11β-HSD1 [2] (setting [4]) it was less than 100 nM. Moreover, the Shift at 11β-HSD1 [1] is reported as 3.8. For the same molecule, on 11β-HSD1 [2], the inhibition at 0.1 µM was determined as 90.7%.

Take `C[C@@H](c1ccc(-c2cncc(C#N)n2)cc1)N1CC[C@](CC(C)(C)O)(c2ccc(F)cc2)OC1=O` [EXAMPLE 157, 6-(4-((S)-1-((S)-6-(4-fluorophenyl)-6-(2-hydroxy-2-methylpropyl)-2-oxo-1,3-oxazinan-3-yl)ethyl)phenyl)pyrazine-2-carbonitrile]: the IC50 on 11β-HSD1 [1] is 27.4 nM; against 11β-HSD1 [2] (setting [3]) it was 2.9 nM; against 11β-HSD1 [2] (setting [4]), less than 100 nM. In addition, the Shift on 11β-HSD1 [1] came to 9.6. Besides, the inhibition at 0.1 µM on 11β-HSD1 [2] came to 96.3%.

In the case of `C[C@@H](c1ccc(-c2cncc(C(N)=O)n2)cc1)N1CC[C@](CC(C)(C)O)(c2ccc(F)cc2)OC1=O` [EXAMPLE 159, 6-(4-{1-[6-(4-Fluoro-phenyl)-6-(2-hydroxy-2-methyl-propyl)-2-oxo-[1,3]oxazinan-3-yl]-ethyl}-phenyl)-pyrazine-2-carboxylic acid amide], the IC50 at 11β-HSD1 [1] is 7.3 nM; against 11β-HSD1 [2] (setting [3]), 3.3 nM; against 11β-HSD1 [2] (setting [4]), less than 100 nM. Moreover, on 11β-HSD1 [1], the Shift was determined as 2.2. At 11β-HSD1 [2], the inhibition at 0.1 µM turned out to be 94.6%.

With `CCOc1cc(-c2ccc([C@H](C)N3CC[C@](CC(C)(C)O)(c4ccccc4)OC3=O)cc2)cc(C)n1` [EXAMPLE 162, (S)-3-((S)-1-(4-(2-ethoxy-6-methylpyridin-4-yl)phenyl)ethyl)-6-(2-hydroxy-2-methylpropyl)-6-phenyl-1,3-oxazinan-2-one], the IC50 at 11β-HSD1 [1] is 31.7 nM; against 11β-HSD1 [2] (setting [3]), 1.4 nM; against 11β-HSD1 [2] (setting [4]), less than 100 nM. Moreover, the Shift on 11β-HSD1 [1] is 21.9. Besides, at 11β-HSD1 [2], the inhibition at 0.1 µM is 87.2%.

With `C[C@@H](c1ccc(-c2cc(C#N)ccn2)cc1)N1CC[C@](CC(C)(C)O)(c2ccccc2)OC1=O` [EXAMPLE 164, 2-(4-((S)-1-((S)-6-(2-hydroxy-2-methylpropyl)-2-oxo-6-phenyl-1,3-oxazinan-3-yl)ethyl)phenyl)isonicotinonitrile], the IC50 on 11β-HSD1 [1] was 22.2 nM; at 11β-HSD1 [2] (setting [3]), 1.2 nM; against 11β-HSD1 [2] (setting [4]), less than 100 nM. For the same molecule, the Shift at 11β-HSD1 [1] is listed as 18.2. In addition, the inhibition at 0.1 µM at 11β-HSD1 [2] amounted to 99.4%.

For `C[C@@H](c1ccc(-c2ncccc2C#N)cc1)N1CC[C@](CC(C)(C)O)(c2ccccc2)OC1=O` [EXAMPLE 165, 2-(4-((S)-1-((S)-6-(2-hydroxy-2-methylpropyl)-2-oxo-6-phenyl-1,3-oxazinan-3-yl)ethyl)phenyl)nicotinonitrile], the results for the concentration for half-maximal inhibition (IC50) on 11β-HSD1 [1], on 11β-HSD1 [2] (setting [3]) and against 11β-HSD1 [2] (setting [4]) were 42.5 nM, 2.4 nM and less than 100 nM, respectively. In addition, the inhibition at 0.1 µM at 11β-HSD1 [2] worked out at 94.5%.

With `C[C@@H](c1ccc(-c2cccnc2)cc1)N1CC[C@](CCCO)(c2ccc(F)cc2)OC1=O` [EXAMPLE 197, (R)-6-(4-fluorophenyl)-6-(3-hydroxypropyl)-3-((S)-1-(4-(pyridin-3-yl)phenyl)ethyl)-1,3-oxazinan-2-one], the IC50 was 5.7 nM on 11β-HSD1 [1], 1.1 nM against 11β-HSD1 [2] (setting [3]) and less than 100 nM against 11β-HSD1 [2] (setting [4]). Besides, the inhibition at 0.1 µM at 11β-HSD1 [2] is 96.5%.

Consider `C[C@@H](c1ccc(-c2ccc(OCCF)nc2)cc1)N1CC[C@](CC(C)(C)O)(c2ccccc2)OC1=O` [EXAMPLE 200, (S)-3-((S)-1-(4-(6-(2-fluoroethoxy)pyridin-3-yl)phenyl)ethyl)-6-(2-hydroxy-2-methylpropyl)-6-phenyl-1,3-oxazinan-2-one], for which the IC50 at 11β-HSD1 [1] was 18.3 nM; against 11β-HSD1 [2] (setting [3]), 0.96 nM; on 11β-HSD1 [2] (setting [4]) it was less than 100 nM. The Shift on 11β-HSD1 [1] is recorded as 19.1. On 11β-HSD1 [2], the inhibition at 0.1 µM came to 98.3%.

One may read the IC50 as the midpoint of a concentration-inhibition curve. By inhibition is commonly meant the share of the control response that was lost under treatment.

Source of the values: patent US8569292B2, “Cyclic inhibitors of 11β-hydroxysteroid dehydrogenase 1” (Vitae Pharmaceuticals, Inc., priority 2008, dated 2013).
